# From ChEMBL document CHEMBL6078666, “Discovery of Novel Coumarin Pleuromutilin Derivatives as Potent Anti-MRSA Agents” (J Med Chem, 2024)
# How the values were obtained:
# Type in all cases: functional
# Staphylococcus aureus [1] = test: Ratio of MBC to MIC against Staphylococcus aureus ATCC 43300
# Enterococcus faecium [2] = test: Antibacterial activity against vancomycin-resistant Enterococcus faecium ATCC 700221 assessed as bacterial growth inhibition measured after 20 hrs by broth dilution method
# Enterococcus faecium [3] = test: Ratio of MBC to MIC against vancomycin-resistant Enterococcus faecium ATCC 700221
# Streptococcus pneumoniae [4] = test: Ratio of MBC to MIC against penicillin-intermediate Streptococcus pneumoniae ATCC 49619
# Enterococcus faecium [5] = test: Ratio of MBC to MIC against vancomycin-resistant Enterococcus faecium clinical isolate 202308456
# Staphylococcus aureus [6] = test: Antibacterial activity against methicillin-resistant Staphylococcus aureus clinical isolate 202311772 assessed as bacterial growth inhibition measured after 20 hrs by broth dilution method
# Staphylococcus aureus [7] = test: Antibacterial activity against methicillin-resistant Staphylococcus aureus ATCC 43300 assessed as bacterial growth inhibition measured after 20 hrs by broth dilution method
# Enterococcus faecium [8] = test: Antibacterial activity against vancomycin-resistant Enterococcus faecium ATCC 51559 assessed as bacterial growth inhibition measured after 20 hrs by broth dilution method
# Enterococcus faecium [9] = test: Antibacterial activity against vancomycin-resistant Enterococcus faecium clinical isolate 202308456 assessed as bacterial growth inhibition measured after 20 hrs by broth dilution method
# [10] = test system: Staphylococcus epidermidis; test: Antibacterial activity against methicillin-resistant Staphylococcus epidermidis clinical isolate 202409139 assessed as bacterial growth inhibition measured after 20 hrs by broth dilution method
# Enterococcus faecium [11] = test: Ratio of MBC to MIC against vancomycin-resistant Enterococcus faecium ATCC 51559
# Staphylococcus aureus [12] = test: Ratio of MBC to MIC against methicillin-resistant Staphylococcus aureus ATCC 33591
# [13] = test system: Staphylococcus epidermidis; test: Antibacterial activity against methicillin-resistant Staphylococcus epidermidis clinical isolate 202409454 assessed as bacterial growth inhibition measured after 20 hrs by broth dilution method
# [14] = test system: Staphylococcus epidermidis; test: Antibacterial activity against Staphylococcus epidermidis ATCC 51625 assessed as bacterial growth inhibition measured after 20 hrs by broth dilution method
# Staphylococcus aureus [15] = test: Antibacterial activity against methicillin-resistant Staphylococcus aureus clinical isolate 202405157 assessed as bacterial growth inhibition measured after 20 hrs by broth dilution method
# Streptococcus pneumoniae [16] = test: Antibacterial activity against penicillin-intermediate Streptococcus pneumoniae ATCC 49619 assessed as bacterial growth inhibition measured after 20 hrs by broth dilution method
# Staphylococcus aureus [17] = test: Ratio of MBC to MIC against methicillin-resistant Staphylococcus aureus clinical isolate 202405157
# Staphylococcus aureus [18] = test: Ratio of MBC to MIC against methicillin-resistant Staphylococcus aureus clinical isolate 202313160
# [19] = test system: Staphylococcus epidermidis; test: Ratio of MBC to MIC against Staphylococcus epidermidis ATCC 51625
# Staphylococcus aureus [20] = test: Antibacterial activity against methicillin-resistant Staphylococcus aureus ATCC 33591 assessed as bacterial growth inhibition measured after 20 hrs by broth dilution method
# Staphylococcus aureus [21] = test: Antibacterial activity against methicillin-resistant Staphylococcus aureus clinical isolate 202313160 assessed as bacterial growth inhibition measured after 20 hrs by broth dilution method
# [22] = test system: Staphylococcus epidermidis; test: Ratio of MBC to MIC against methicillin-resistant Staphylococcus epidermidis clinical isolate 202409454
# Staphylococcus aureus [23] = test: Ratio of MBC to MIC against methicillin-resistant Staphylococcus aureus clinical isolate 202311772
# Streptococcus pneumoniae [24] = test: Antibacterial activity against penicillin-resistant Streptococcus pneumoniae ATCC 51916 assessed as bacterial growth inhibition measured after 20 hrs by broth dilution method
# [25] = test system: Staphylococcus epidermidis; test: Ratio of MBC to MIC against methicillin-resistant Staphylococcus epidermidis clinical isolate 202409139
# Streptococcus pneumoniae [26] = test: Ratio of MBC to MIC against penicillin-resistant Streptococcus pneumoniae ATCC 51916
SMILES,Ratio (Staphylococcus aureus [1]),MIC (Enterococcus faecium [2]),Ratio (Enterococcus faecium [3]),Ratio (Streptococcus pneumoniae [4]),Ratio (Enterococcus faecium [5]),MIC (Staphylococcus aureus [6]),MIC (Staphylococcus aureus [7]),MIC (Enterococcus faecium [8]),MIC (Enterococcus faecium [9]),MIC [10],Ratio (Enterococcus faecium [11]),MIC [13],MIC [14],MIC (Staphylococcus aureus [15]),MIC (Streptococcus pneumoniae [16]),Ratio [19],MIC (Staphylococcus aureus [20]),MIC (Staphylococcus aureus [21]),Ratio (Staphylococcus aureus [23]),MIC (Streptococcus pneumoniae [24]),further results
C=C[C@]1(C)C[C@@H](OC(=O)CSc2cc(=O)oc3cc(C)ccc23)[C@]2(C)[C@H](C)CC[C@]3(CCC(=O)[C@H]32)[C@@H](C)[C@@H]1O,2,0.031 µg/mL,2,>4,2,0.031 µg/mL,0.063 µg/mL,0.063 µg/mL,0.063 µg/mL,0.125 µg/mL,2,0.063 µg/mL,0.016 µg/mL,0.125 µg/mL,0.063 µg/mL,>4,0.031 µg/mL,0.125 µg/mL,,,Ratio (Staphylococcus aureus [12]): >4; Ratio (Staphylococcus aureus [17]): 4; Ratio (Staphylococcus aureus [18]): 4
C=C[C@]1(C)C[C@@H](OC(=O)CSc2cc(=O)oc3ccc(F)cc23)[C@]2(C)[C@H](C)CC[C@]3(CCC(=O)[C@H]32)[C@@H](C)[C@@H]1O,4,0.031 µg/mL,4,>4,>4,0.031 µg/mL,0.063 µg/mL,0.063 µg/mL,0.031 µg/mL,0.063 µg/mL,2,0.125 µg/mL,0.031 µg/mL,0.063 µg/mL,0.063 µg/mL,4,0.031 µg/mL,0.063 µg/mL,>4,0.125 µg/mL,Ratio [22]: >4; Ratio (Staphylococcus aureus [12]): >4; Ratio [25]: 2; Ratio (Staphylococcus aureus [17]): >4
C=C[C@]1(C)C[C@@H](OC(=O)CSCCOc2cc(=O)oc3ccccc23)[C@]2(C)[C@H](C)CC[C@]3(CCC(=O)[C@H]32)[C@@H](C)[C@@H]1O,>4,0.063 µg/mL,>4,>4,2,0.125 µg/mL,0.25 µg/mL,0.25 µg/mL,0.125 µg/mL,0.125 µg/mL,2,0.063 µg/mL,0.031 µg/mL,0.25 µg/mL,0.125 µg/mL,>4,0.063 µg/mL,0.125 µg/mL,1,0.25 µg/mL,Ratio [22]: 2; Ratio (Staphylococcus aureus [18]): 2
C=C[C@]1(C)C[C@@H](OC(=O)CO)[C@]2(C)[C@H](C)CC[C@]3(CCC(=O)[C@H]32)[C@@H](C)[C@@H]1O [PLEUROMULIN],2,0.5 µg/mL,>4,2,2,0.25 µg/mL,1 µg/mL,2 µg/mL,0.5 µg/mL,0.25 µg/mL,2,0.25 µg/mL,1 µg/mL,0.5 µg/mL,2 µg/mL,>4,0.5 µg/mL,0.5 µg/mL,>4,4 µg/mL,Ratio (Staphylococcus aureus [12]): 4; Ratio [25]: 4; Ratio (Staphylococcus aureus [18]): >4; Ratio (Streptococcus pneumoniae [26]): 4
C=C[C@]1(C)C[C@@H](OC(=O)CSc2cc(=O)oc3ccccc23)[C@]2(C)[C@H](C)CC[C@]3(CCC(=O)[C@H]32)[C@@H](C)[C@@H]1O,>4,0.031 µg/mL,1,>4,>4,0.031 µg/mL,0.063 µg/mL,0.125 µg/mL,0.125 µg/mL,0.125 µg/mL,4,0.25 µg/mL,0.016 µg/mL,0.125 µg/mL,0.031 µg/mL,>4,0.031 µg/mL,0.125 µg/mL,2,0.125 µg/mL,Ratio [22]: 2; Ratio (Staphylococcus aureus [17]): 2; Ratio (Streptococcus pneumoniae [26]): 2
